Where a name gives a salt, the structure may show the parent alone.
Experiments:
CD-1 male mice [1] = assay: T-maze footshock active avoidance training (FAAT), retention after 1 week, well-trained mice, prevention of DMSO-induced amnesia; conditions: for trials to criterion compared with DMSO alone / saline alone: 3.5X10^-10 mol icv 2-3 min after FAAT, in DMSO, retention tested one week later, groups of 15 mice
Description: (§1) Test Animals. After 1 week in the laboratory, CD-1 male mice obtained from Charles River Breeding Laboratories were caged individually 24-48 hr prior to training and remained singly housed until retention was tested 1 week later. Animal rooms were on a 12-hr light/dark cycle with lights going on at the hour of 0600.
(§2) With the exception of pregnenolone sulfate, all of the substances were dissolved in appropriate amounts of pure DMSO and 2 µl of DMSO alone or containing test substance was injected icv into each mouse after training. Pregnenolone sulfate was dissolved in DMSO and diluted with physiological saline to a final concentration of 1% DMSO or less in saline, and the results of, injections of 2 µl of solutions containing pregnenolone sulfate were compared with those obtained with 2 µl of such saline solutions alone.
(§3) Apparatus, Training and Testing Procedures. The T-maze used for footshock active avoidance training (FAAT) consisted of a black plastic alley (46 cm long) with a start box at one end and two goal boxes (17.5 cm long) at the other. The start box was separated from the alley by a plastic guillotine door that prevented movement down the alley until training began. The alley was 12.5 cm deep and 9.8 cm wide. An electrifiable stainless steel rod floor ran throughout the maze.
(§4) Mice were not permitted to explore the maze before training. A block of training trials began when a mouse was placed in the start box. The guillotine door was raised and a muffled doorbell-type buzzer sounded simultaneously; footshock was 5 sec later through a scrambled grid floor shocker (Colbourn Instruments, model E13-08). The goal box first entered during the first set of trials was designated as "incorrect", and footshock was continued until the mouse entered the other goal box, which in all subsequent trials was designated "correct" for the particular mouse. At the end of each group of trials, the mouse was removed to its home cage.
As training proceeded, a mouse made one of two types of responses. A response latency longer than 5 sec was classed as an escape from the footshock. A response latency less than or equal to 5 sec was considered an avoidance, since the mouse avoided receiving a footshock. Two exclusion criteria were applied to reduce learning variability among mice, as follows. On the first training trials, mice with escape latencies greater than 20 sec were discarded. Mice not having at least one errorless escape latency between 1.5 and 3.5 sec on training trials 3 or 4 were excluded. The total exclusions were fewer than 15%. Mice received five such training trials. One week after training and post-trial administration of vehicle alone or vehicle containing test substance, T-maze training was resumed until each mouse made five avoidance responses in six consecutive training trials (trials to criterion). The recall score was taken to be the percentage of tested mice remembering original training.
In these instances, training was performed under conditions that tend to maximize learning (sound intensity, 65 decibels; footshock current, 0.35 mA; intertrial interval, 45 s).
Surgical Procedure in Preparation for Intracerebroventricular (icv) Administration of Substances. Icv injection was the mode of administration of test substances because this eliminates problems of differential penetration of the blood-brain barrier. The following procedure was performed 24-48 hr prior to training.

CD-1 male mice [2] = assay: T-maze footshock active avoidance training (FAAT), retention after 1 week, weakly trained mice, memory enhancement
Description: as §1, §2, §3, §4
As training proceeded, a mouse made one of two types of responses. A response latency longer than 5 sec was classed as an escape from the footshock. […]

SMILES	trials to criterion compared with DMSO alone / saline alone (CD-1 male mice [1])	other results
C[C@]12CC[C@H](O)CC1=CC[C@@H]1[C@@H]2CC[C@]2(C)C(=O)CC[C@@H]12 [DHEA, 5-androsten-3β-ol-17-one]	significantly fewer trials to criterion than mice receiving DMSO alone	
C[C@]12CC[C@H](OS(=O)(=O)O)CC1=CC[C@@H]1[C@@H]2CC[C@]2(C)C(=O)CC[C@@H]12 [DHEAS, dehydroepiandrosterone sulfate]	significantly fewer trials to criterion than mice receiving DMSO alone	
C[C@]12CCC(=O)C=C1CC[C@@H]1[C@@H]2[C@@H](O)C[C@]2(C=O)[C@@H](C(=O)CO)CC[C@@H]12 [aldosterone, 4-pregnen-11β,21-diol-3,18,20-trione]	significantly fewer trials to criterion than mice receiving DMSO alone	
C[C@]12CCC(=O)C=C1CC[C@@H]1[C@@H]2CC[C@]2(C)C(=O)CC[C@@H]12 [androstenedione, 4,androsten-3,17-dione]	significantly fewer trials to criterion than mice receiving DMSO alone	
C[C@]12CCC(=O)C[C@@H]1CC[C@@H]1[C@@H]2CC[C@]2(C)[C@@H](O)CC[C@@H]12 [dihydrotestosterone, 5α-androstan-17β-ol-3-one]	significantly fewer trials to criterion than mice receiving DMSO alone	
C[C@]12CC[C@@H]3c4ccc(O)cc4CC[C@H]3[C@@H]1CC[C@@H]2O [estradiol, 1,3,5(10)-estratrien-3,17β-diol]	significantly different from those obtained with DMSO alone and significantly greater than those receiving saline alone	
C[C@]12CC[C@@H]3c4ccc(O)cc4CC[C@H]3[C@@H]1CCC2=O [estrone, 1,3,5(10)-estratrien-3-ol-17-one]	significantly different from those obtained with DMSO alone and significantly greater than those receiving saline alone	
CC(=O)C1CCC2C3CC=C4CC(OS(=O)(=O)O)CCC4(C)C3CCC12C (stereo not drawn) [pregnenolone sulfate, 5-pregnen-3β-ol-20-one sulfate, sodium salt]		potency relative to DHEA (CD-1 male mice [2]; memory enhancement in mice): ~1000 times; potency relative to pregnenolone (CD-1 male mice [2]; memory enhancement in mice): approximately 10 times
CC(=O)[C@H]1CC[C@H]2[C@@H]3CC=C4C[C@@H](O)CC[C@]4(C)[C@H]3CC[C@]12C [pregnenolone, 5-pregnen-3β-ol-20-one]	significantly fewer trials to criterion than mice receiving DMSO alone	trials to criterion (CD-1 male mice [2]; weakly trained mice, 3.5X10^-15 mol per mouse icv, p < 0.05 vs vehicle controls (9.30±0.47), mean ± SEM): 7.70±0.55; potency on a molar basis relative to the other two substances tested (DHEA, testosterone) (CD-1 male mice [1]; from dose-response curves): at least 100 times
CC(=O)[C@H]1CC[C@H]2[C@@H]3CCC4=CC(=O)CC[C@]4(C)[C@H]3CC[C@]12C [progesterone, 4-pregnen-3,20-dione]	significantly different from those obtained with DMSO alone and significantly greater than those receiving saline alone	
C[C@]12CC[C@H]3[C@@H](CCC4=CC(=O)CC[C@@]43C)[C@@H]1CC[C@@H]2O [testosterone, 4-androsten-17β-ol-3-one]	significantly fewer trials to criterion than mice receiving DMSO alone	
